The SangsterLogP compilation

experiment: from Langlois, M.; Dubost, J.; Audry, E.; Dallet, P.; Colleter, J. (1989). Simultaneous determination of physicochemical constants usable in QSAR in a series of alpha-adrenergic amines. Analusis : chimie …

Row | Structure (SMILES) | logP
1 | Clc1cccc(Cl)c1C1NCCc2c1[nH]c1ccccc21 (centres undefined) | 3.34
2 | c1ccc2c3c([nH]c2c1)C(c1ccc2c(c1)OCO2)NCC3 (centres undefined) | 3.69
3 | Clc1ccc(C2NCCc3c2[nH]c2ccccc32)cc1Cl (centres undefined) | 3.38
4 | Fc1ccccc1C1NCCc2c1[nH]c1ccccc21 (centres undefined) | 3.16
5 | Clc1ccc(C2NCCc3c2[nH]c2ccccc32)c(Cl)c1 (centres undefined) | 3.58
6 | c1ccc(C(CC2NCCc3c2[nH]c2ccccc32)c2ccccc2)cc1 (centres undefined) | 3.47

Other lines, results leading:

Row | logP | Structure (SMILES)
7 | 3.04 | O=[N+]([O-])c1cccc(C2NCCc3c2[nH]c2ccccc32)c1 (centres undefined)
8 | 3.33 | O=[N+]([O-])c1ccc(Cl)c(C2NCCc3c2[nH]c2ccccc32)c1 (centres undefined)
9 | 3.47 | Clc1cccc(C2NCCc3c2[nH]c2ccccc32)c1 (centres undefined)
